This note sets out measurements from US20100292257A1, “USES OF 2-[PIPERIDINYL] METHYL-2, 3-DIHYDROIMIDAZO [1,2-C] QUINAZOLIN-5 (6H)-ONE FOR PROVIDING AN ANALGESIC EFFECT, ANTI-ALLERGIC EFFECT AND HISTAMINE H1 RECEPTOR ANTAGONISM EFFECT” (Medical and Pharmaceutical Industry Technology and …, priority 2007, published 2010).

One experiment relates to Wistar derived male rats. The experiment in a line: Passive cutaneous anaphylaxis. It counts as in vivo. As to conditions: for Total Score: wheal diameter score, group of five rats, vehicle 50. As for the experimental part:
A group of five Wistar derived male rats weighing 80±20 g was passively sensitized 16 hours earlier by intradermal injection of reaginic antiovalbumin serum (0.5 ml) on two spots of the dorsal surface. […] Within one hour after administration of the above substances, the animals were challenged intravenously with a mixture of ovalbumin (1 mg) and Evans Blue dye (5 mg) and sacrificed 30 minutes later. The two wheal diameters were measured for each animal and scored as follows: • Score 0: diameter<0.05 cm • Score 1: diameter 0.05-0.20 cm • Score 2: diameter 0.2-0.4 cm • Score 3: diameter 0.4-0.6 cm • Score 4: diameter 0.6-0.8 cm • Score 5: diameter>0.8 cm
Maximum possible score for each animal total 5×2=10. [Reference: Goose, J. and Blair, A. M. J. N. Passive cutaneous anaphylaxis in the rat, induced with two homologous reagin-like antibodies and its specific inhibition with disodium chromoglycate. Immunology 16: 749-760, 1969.]
(Total score of vehicle group−Total score of tested group)/(Total score of vehicle group)×100%

For experiment [1], the system named is CD-1 (Crl.) derived male mice. The experiment in a line: Acetic acid-induced writhing assay. It counts as in vivo. The conditions noted are these: 1 h before acetic acid 0.5%, 20 ml/kg i.p., writhes 5th-10th min, vehicle 12.4 ± 1.5. As for the experimental part:
Vehicle (2% Tween 80, 10 ml/kg), PDC-130 or aspirin (100 mg/kg) was administered orally to groups of eight CD-1 (Crl.) derived male mice, weighing 24±2 g, 1 hour before intraperitoneal injection of acetic acid (0.5%, 20 ml/kg). The number of writhes of animals was observed and recorded during a period of time from the 5th to the 10th minutes period after acetic acid administration. [Reference: Inoue. K., Motonaga, A. and Nishimura, T. Mechanism of antiinflammatory action of etodolac. Arzneim-Forsch./Drug Res. 41: 235-239, 1991.]
(In writhing tests, fewer writhes than in controls are read as antinociception.)

In experiment [2] the test system is CD-1 (Crl.) derived male mice. In words: Phenylquinone (PQ)-induced writhing assay. In kind it is in vivo. The conditions noted are these: 1 h before phenylquinone 2 mg/kg i.p., writhes 5th-10th min, vehicle 15.1 ± 1.4. As for the experimental part: Vehicle (2% Tween 80, 10 ml/kg), PDC-130 or aspirin was orally administered to a group of eight CD-1 (Crl.) derived male mice weighing 24±2 g. One hour later, phenylquinone (2 mg/kg) was given by intraperitoneal injection. […] of animals was observed and recorded during a period of time from the 5th to 10th minutes after PQ administration, [Reference: Siegmund, E, Cadmus, R. and Lu, G. A method for evaluating both non-narcotic and narcotic analgesics. Proc. Soc. Exp. Biol. Med. 952: 729-731, 1957.]

A further experiment has as its target T1, Histamine H1 Receptor (Rattus norvegicus, UniProt P31390).
T1 construct: immediately challenged with two intradermal injection of histamine; from tissue; host or cells: living Wistar derived male rats (skin, intradermal histamine challenge)
In words: Histamine H1 antagonism (histamine-induced wheal). It counts as in vivo, rats. The conditions noted are these: for Total Score: 1 h before intradermal histamine, wheal diameter score, group of five rats, vehicle 50; for Inhibition (%): inhibition of histamine-induced blue colored wheal vs vehicle. As for the experimental part: After one hour, animals were injected with Evans Blue dye (5 mg/0.5 ml/rat) intravenously and immediately challenged with two intradermal injection of histamine (each 30 μg/0.05 ml). The animals were sacrificed 30 minutes later. The two wheal diameters were then measured for each animal and scored as follows: • Score 0: diameter<0.05 cm • Score 1: diameter 0.05-0.20 cm • Score 2: diameter 0.2-0.4 cm • Score 3: diameter 0.4-0.6 cm • Score 4: diameter 0.6-0.8 cm • Score 5: diameter>0.8 cm
Maximum possible score for each animal total 5×2=10.

Each structure is given as a SMILES string.

T1 sequence (P31390 whole entry): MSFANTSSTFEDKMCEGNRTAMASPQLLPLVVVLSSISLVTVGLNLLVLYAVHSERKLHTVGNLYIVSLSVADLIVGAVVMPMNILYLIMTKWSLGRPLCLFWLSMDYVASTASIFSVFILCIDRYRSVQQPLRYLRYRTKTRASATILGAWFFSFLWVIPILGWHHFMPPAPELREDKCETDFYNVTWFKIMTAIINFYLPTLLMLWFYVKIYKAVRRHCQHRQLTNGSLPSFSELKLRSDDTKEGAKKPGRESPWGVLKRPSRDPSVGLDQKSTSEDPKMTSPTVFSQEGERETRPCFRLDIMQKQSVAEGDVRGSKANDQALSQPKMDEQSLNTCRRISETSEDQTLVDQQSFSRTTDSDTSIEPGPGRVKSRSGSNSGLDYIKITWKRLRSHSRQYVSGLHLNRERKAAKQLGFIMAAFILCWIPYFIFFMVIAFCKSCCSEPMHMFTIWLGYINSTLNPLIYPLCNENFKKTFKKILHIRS

For orientation: inhibition means the share of the control response that was lost under treatment. Low readings indicate little suppression, high ones strong suppression. Regarding `CN1CCC(=C2c3ccccc3C=Cc3ccccc32)CC1` [Cyproheptadine, cyproheptadine, reference compound], in the experiment with Wistar derived male rats (1 mg/kg orally), the “Total Score” value is 14. This compound yielded an inhibition at 1 mg/kg in the experiment with Wistar derived male rats (Rattus norvegicus, po, 1 mg/kg orally, inhibition of passive cutaneous anaphylaxis blue colored wheal vs vehicle) of 72%.
`CC(=O)Oc1ccccc1C(=O)O` [Aspirin, aspirin, reference compound]: the “Number of Writhing” value is on record as 2.4 ± 1.0 in experiment [1] (100 mg/kg orally) and 5.5 ± 1.5 in experiment [2] (100 mg/kg orally).
As for `O=C(c1ccc(F)cc1)C1CCN(CC2CN3C(=O)Nc4ccccc4C3=N2)CC1` (stereo not drawn) [PDC-130, 2-[1-(4-p-fluorobenzoyl)piperidinyl]methyl-2,3-dihydroimidazo[1,2-c]-quinazolin-5(6H)-one], the “Total Score” value at Histamine H1 Receptor (3 mg/kg orally) is 20; at Histamine H1 Receptor (10 mg/kg orally) it was 14; at Histamine H1 Receptor (30 mg/kg orally), 10; in the experiment on Wistar derived male rats (3 mg/kg orally), 16; in the experiment with Wistar derived male rats (10 mg/kg orally), 10; in the experiment on Wistar derived male rats (30 mg/kg orally) it was 10. Further, the “Inhibition (%)” value was 60% at Histamine H1 Receptor (3 mg/kg orally); 72% on Histamine H1 Receptor (10 mg/kg orally); 80% at Histamine H1 Receptor (30 mg/kg orally); 68% in the experiment on Wistar derived male rats (3 mg/kg orally, inhibition of passive cutaneous anaphylaxis blue colored wheal vs vehicle); 80% with Wistar derived male rats (10 mg/kg orally, inhibition of passive cutaneous anaphylaxis blue colored wheal vs vehicle); 80% in the experiment on Wistar derived male rats (30 mg/kg orally, inhibition of passive cutaneous anaphylaxis blue colored wheal vs vehicle). For the same compound, the “Number of Writhing” value was 12.1 ± 1.6 in experiment [1] (0.03 mg/kg orally); 5.0 ± 1.0 in experiment [1] (0.1 mg/kg orally); 5.3 ± 1.1 in experiment [1] (0.3 mg/kg orally); 2.1 ± 1.1 in experiment [1] (1 mg/kg orally); 12.1 ± 1.6 in experiment [2] (0.03 mg/kg orally); 6.4 ± 1.6 in experiment [2] (0.1 mg/kg orally). Further, the “Number of Writhing” value was 5.3 ± 1.7 in experiment [2] (0.3 mg/kg orally) and 2.8 ± 1.2 in experiment [2] (1 mg/kg orally).
